The subject of assay [1] is K88 Cured vaccine (MS-K88-030321HM-PC2BSRAK88). Description: Antibiotic sensitivity (Int/MIC) at Iowa State University. Type of assay: cell-based, E. coli. Conditions: for MIC: Table 7, E. COS, K88 Cured vaccine; for Antibiotic sensitivity of cured cells (in words): cured MS-K88-030321HM-PC2BSRAK88 cells compared with ECMS091703HM-competent cells. The procedure:
(§1) The antibiotic sensitivity of Entero Vac K88 cells cured of plasmids that contain AMR genes (MS-K88-030321HM-PC2BSRAK88) was performed at Iowa State University (ISU) with comparison to ECMS091703HM-competent cells.

In assay [2] the test system is K88 Pre-Cured cells (ECMS091703HM-competent). Described as above. The format is cell-based, E. coli. Particulars: Table 7, E. COS. The procedure:
as §1

The subject of assay [3] is F18 Pre-Cured cells (MS112101HM-competent). Described as above. Particulars: Table 4, E. COLH. Type of assay: cell-based, E. coli. The procedure: (§2) The antibiotic sensitivity of Edema Vac F18 cells cured of plasmids that contain AMR genes (MS060520HM-PCISRAF18) was performed at Iowa State University (ISU) (Accession: 2020076670) with comparison to MS112101HM-competent cells (see Tables 4 and 5).

In assay [4] the test system is F18 Cured vaccine (MS060520HM-PCISRAF18). The assay is described as above. The format is cell-based, E. coli. Conditions: for MIC: F18 Cured vaccine; for Antibiotic resistance of cured cells (in words): cured MS060520HM-PCISRAF18 cells over MS112101HM-competent cells. The procedure:
as §2

In assay [5] the test system is MS112101HM-AMR5 (Edema Vac F18 transformed with AMR5 plasmid). Description: AMR disc testing on Mueller Hinton agar plates. Type of assay: cell-based, E. coli. Particulars: for Ring measurement (radius, mm): antibiotic disc, Mueller Hinton plates. The procedure: (§3) AMR testing was performed comparing MS112101HM—SR, MS112101HM-AMR5, and MS112101HM-competent cells cultured on Mueller Hinton agar plates using Sulfatrim (SXT), Tetracycline (TE 30), Neomycin (NE 30), Sulfathiazine (ST 0.25), and Gentamicin (GM 10) discs.

The subject of assay [6] is MS112101HM-competent (competent Edema Vac F18 cells). Description: AMR disc testing on Mueller Hinton agar plates. Conditions: antibiotic disc. The format is cell-based, E. coli. The procedure:
as §3

The subject of assay [7] is MS112101HM-SR (Edema Vac F18 cells cured of plasmids that contain AMR genes). Description: AMR disc testing on Mueller Hinton agar plates. The format is cell-based, E. coli. Conditions: for Ring measurement (radius, mm): antibiotic disc, Mueller Hinton plates, MS112101HM-SR; for Resistance of the strain to the antibiotic (in words): disc test, MS112101HM-SR compared with MS112101HM-competent. The procedure: as §3

Assay [8] has as its system ECMS091703HM-SR (Entero Vac K88 cells cured of plasmids that contain AMR genes). Description: AMR disc testing on Mueller Hinton agar plates. Type of assay: cell-based, E. coli. The procedure: AMR testing was performed comparing ECMS091703HM-SR and ECMS091703HM-competent cells cultured on Mueller Hinton agar plates using Neomycin (NE 30) and Sulfathiazine (ST 0.25) discs. A master plate of ECMS091703HM-SR was produced as follows: subculturing a colony of ECMS091703HM-SR from LB agar containing 5% sucrose on new LB agar containing 5% sucrose, incubating overnight at 37° C., and storing sealed at 2-8° C.

Assay [9] has as its system Edema Vac F18 strain of E. coli vaccine. Particulars: TSB media, overnight 37° C. The procedure:
(§4) Testing for resistance of the live avirulent E. coli strains, Entero Vac K88 and Edema Vac F18, to sodium chlorite was performed by evaluating the minimum inhibitory concentration of sodium chlorite as follows: Serial dilutions of sodium chlorite were prepared from a 100 mM stock solution using sterile TSB media and filter sterilized through 0.22 μm filter. Serially diluted tubes (5 ml each) were inoculated with either Entero Vac K88 or Edema Vac F18 strains of E. coli vaccine by adding 20 μl of 100 dose size of either Entero Vac K88 or Edema Vac F18 vaccine rehydrated in 5 ml TSB media. Positive controls are inoculated TSB media only, negative controls are uninoculated TSB media. All tubes were incubated overnight at 37° C. and turbidity was visualized the following day. Results of the MIC tests are disclosed in Table 1.

Assay [10] concerns Entero Vac K88 strain of E. coli vaccine. Particulars: TSB media, overnight 37° C. The procedure:
as §4

Read-outs that look alike come from different tables or passages of the source.

As to `CN1C[C@@H]2C[C@H]1CN2c1cc2c(cc1F)c(=O)c(C(=O)O)cn2C1CC1` [Danofloxacin], the MIC result in [1] was “NI/<=0.1200”; in [2], “NI/<=0.1200”; in assay [3], “NI/<=0.1200”; in [4] (Table 4, E. COLH), “NI/<=0.1200”; in assay [4] (Table 5, E. COS), “NI/<=0.1200”.

For the molecule `CS(=O)(=O)c1ccc([C@@H](O)[C@@H](CF)NC(=O)C(Cl)Cl)cc1` [Florfenicol], the “Antibiotic sensitivity of cured cells (in words)” value (from here on “Antibiotic sensitivity”) in assay [1] was “more sensitive”. Moreover, the “Antibiotic resistance of cured cells (in words)” value (shortened to “Antibiotic resistance”) in assay [4] was “loss of antibiotic resistance”.

On to `CCCN1C[C@H](C)[C@@H](O)[C@](C)(O)[C@@H](CC)OC(=O)[C@H](C)[C@@H](O[C@H]2C[C@@](C)(OC)[C@@H](O)[C@H](C)O2)[C@H](C)[C@@H](O[C@@H]2O[C@H](C)C[C@H](N(C)C)[C@H]2O)[C@](C)(O)C[C@H]1C` [Gamithromycin], for which the MIC result is reported as “NI/8.0000 ^” in [1]; “NI/>8.0000” in [2]; “NI/4.0000 ^” in assay [3]; “NI/4.0000 ^” in assay [4] (Table 4, E. COLH); “NI/8.0000 ^” in [4] (Table 5, E. COS).

With `CN[C@@H]1[C@H](O)[C@H](NC)[C@H]2O[C@@]3(O)C(=O)C[C@@H](C)O[C@H]3O[C@@H]2[C@H]1O` [Spectinomycin], the MIC result in assay [1] is listed as “NI/<=8.0000”; in [2], “NI/>64.0000”; in assay [3], “NI/>64.0000”; in assay [4] (Table 4, E. COLH), “NI/16.0000”; in [4] (Table 5, E. COS), “NI/<=8.0000”.

For `COc1cc(NS(=O)(=O)c2ccc(N)cc2)nc(OC)n1` [Sulfadimethoxine], the “Antibiotic sensitivity” value in [1] is reported as “more sensitive”. Besides, the “Antibiotic resistance” value in assay [4] is “loss of antibiotic resistance”.

Consider `CN(C)[C@@H]1C(O)=C(C(N)=O)C(=O)[C@@]2(O)C(O)=C3C(=O)c4c(O)cccc4[C@@](C)(O)[C@H]3C[C@@H]12` [Tetracycline], for which the “Ring measurement (radius, mm)” value in [5], in assay [6] and in assay [7] was 0 mm each time.

In the case of `C=C[C@]1(C)C[C@@H](OC(=O)CSCCN(CC)CC)[C@]2(C)[C@H](C)CC[C@]3(CCC(=O)[C@H]32)[C@@H](C)[C@@H]1O` [Tiamulin], the “Antibiotic resistance” value in [4] is given as “retained resistance”.

On to `CC[C@H]1OC(=O)C[C@@H](O)[C@H](C)[C@@H](O[C@@H]2O[C@H](C)[C@@H](O)[C@H](N(C)C)[C@H]2O)[C@@H](CCN2CCCCC2)C[C@@H](C)C(=O)/C=C/C(C)=C/[C@@H]1CN1CCCCC1` [Tildipirosin], for which the MIC entry is “NI/8.0000 ^” in [1]; “NI/8.0000 ^” in [2]; “NI/4.0000 ^” in assay [3]; “NI/4.0000 ^” in assay [4] (Table 4, E. COLH); “NI/8.0000 ^” in [4] (Table 5, E. COS).

In the case of `CC[C@H]1OC(=O)C[C@@H](O)[C@H](C)[C@@H](O[C@@H]2O[C@H](C)[C@@H](O)[C@H](N(C)C)[C@H]2O)[C@@H](CCN2C[C@H](C)C[C@H](C)C2)C[C@@H](C)C(=O)/C=C/C(C)=C/[C@@H]1CO[C@@H]1O[C@H](C)[C@@H](O)[C@@H](OC)[C@H]1OC` [Tilmicosin], in assay [4], the “Antibiotic resistance” value is given as “retained resistance”.

With `CCCNC[C@]1(O)[C@H](C)O[C@@H](O[C@H]2[C@H](C)[C@@H](O[C@@H]3O[C@H](C)C[C@H](N(C)C)[C@H]3O)[C@](C)(O)C[C@@H](C)CN[C@H](C)[C@@H](O)[C@](C)(O)[C@@H](CC)OC(=O)[C@@H]2C)C[C@@]1(C)OC` [Tulathromycin], the MIC result was “NI/<=8.0000” in [1]; “NI/32.0000 ^” in [2]; “NI/<=8.0000” in [3]; “NI/<=8.0000” in assay [4] (Table 4, E. COLH); “NI/<=8.0000” in assay [4] (Table 5, E. COS).

In the case of `CC[C@H]1OC(=O)C[C@@H](O)[C@H](C)[C@@H](O[C@@H]2O[C@H](C)[C@@H](O[C@H]3C[C@@](C)(O)[C@@H](O)[C@H](C)O3)[C@H](N(C)C)[C@H]2O)[C@@H](CC=O)C[C@@H](C)C(=O)/C=C/C(C)=C/[C@@H]1CO[C@@H]1O[C@H](C)[C@@H](O)[C@@H](OC)[C@H]1OC` [Tylosin (Tartrate/Base), Tylosin], the MIC result in assay [1] was “NI/>32.0000”; in [2] it was “NI/>32.0000”; in assay [3] it was “NI/>32.0000”; in assay [4] (Table 4, E. COLH), “NI/>32.0000^”; in [4] (Table 5, E. COS), “NI/>32.0000”.

Gentamicin: the “Ring measurement (radius, mm)” value in [5] is 11 mm; in assay [6], 4 mm; in [7], 11 mm. The “Resistance of the strain to the antibiotic (in words)” value (from here on “Resistance of the strain”) in assay [7] is “less resistance”. Also, the “Antibiotic resistance” value in assay [4] is on record as “loss of antibiotic resistance”.

As to Neomycin, the “Antibiotic sensitivity” value in assay [1] was “more sensitive”. Further, the “Ring measurement (radius, mm)” value is 11 mm in assay [5]; 7 mm in assay [6]; 8 mm in assay [7]; 34 mm in assay [8] (antibiotic disc, Mueller Hinton plates, ECMS091703HM-SR). Also, the “Resistance of the strain” value is on record as “retained resistance” in assay [5] (disc test); “less resistance” in assay [7]; “less resistance” in assay [8] (disc test, ECMS091703HM-SR compared with ECMS091703HM-competent).

Consider Penicillin, for which the “Antibiotic resistance” value in [4] is listed as “retained resistance”.

As for Sodium Chlorite [NaClO2], the Turbidity result in assay [9] (NaClO2 0.03125 mM) is reported as “Pos”; in assay [9] (NaClO2 0.0625 mM), “Pos”; in [9] (NaClO2 0.125 mM) it was “Neg”; in assay [9] (NaClO2 0.25 mM), “Neg”; in [9] (NaClO2 0.5 mM), “Neg”; in [9] (NaClO2 1 mM), “Neg”. The Turbidity entry is listed as “Neg” in assay [9] (NaClO2 10 mM); “Pos” in assay [10] (NaClO2 0.03125 mM); “Pos” in [10] (NaClO2 0.0625 mM); “Neg” in assay [10] (NaClO2 0.125 mM); “Neg” in assay [10] (NaClO2 0.25 mM); “Neg” in assay [10] (NaClO2 0.5 mM). Further, the Turbidity result in assay [10] (NaClO2 1 mM) and in assay [10] (NaClO2 10 mM) was “Neg” in each case.

As for Sulfatrim [SXT], the “Ring measurement (radius, mm)” value was 17 mm in assay [5], 11 mm in assay [6] and 16 mm in assay [7]. In addition, in assay [7], the “Resistance of the strain” value is “less resistance”.

For Trimethoprim/Sulphamethoxazole, the MIC entry in assay [1] is “NI/<=2.0000”; in assay [2] it was “NI/<=2.0000”; in assay [3] it was “NI/<=2.0000”; in assay [4] (Table 4, E. COLH), “NI/<=2.0000”; in assay [4] (Table 5, E. COS), “NI/<=2.0000”.

Source of the values: patent publication US20260097106A1, “AVIRULENT LIVE BACTERIAL VACCINES CURED OF PLASMIDS CONTAINING ANTIMICROBIAL RESISTANCE GENES” (Drs. Koehnk & Feldman, LLP, priority 2022, published 2026).
